In patent publication US10414778B2, “Methods for treatment of resistant cancer” (New Mexico Tech University Research Park Corporation, priority 2016, dated 2019):
Read-outs that look alike come from different tables or passages of the source.

Assays:
U87 cells = assay: MTT growth inhibition, U87 glioma; format: cell-based, human; conditions: Homo sapiens, U-87 MG
Protocol: (§1) Human cancer cell lines were obtained from the American Type Culture Collection (ATCC, Manassas, Va., USA), the European Collection of Cell Culture (ECACC, Salisbury, UK), and the Deutsche Sammlung von Mikroorganismen und Zellkulturen (DSMZ, Braunschweig, Germany). Human cervical adenocarcinoma HeLa cells were cultured in DMEM supplemented with 10% fetal bovine serum (FBS). Human mammary carcinoma MCF-7 cells were cultured in RPMI supplemented with 10% FBS. The U87 cells (ATCC HTB-14) were cultured in DMEM culture medium, while the A549 cells (DSMZ ACC107) were cultured in RPMI culture medium supplemented with 10% heat-inactivated FBS. The GBM Hs683 (ATCC HTB-138) and the T98G (ATCC CRL-1690) cell lines were cultivated in DMEM supplemented with 10% FBS. The GBM U251 cells (ECACC code 09063001) were cultured in 10% MEM. The human uterine sarcoma MES-SA and MES-SA/Dx5 cells were cultured in RPMI-1640 medium supplemented with 10% FBS with MES SA/Dx5 maintained in the presence of 500 nM Doxorubicin (Sigma™). The U373 glioblastoma cells (ECACC 08061901) were cultured in RPMI culture medium supplemented with 10% heat-inactivated FBS.
(§2) All compounds were dissolved in DMSO at a concentration of either 100 mM or 50 mM prior to cell treatment. The cells were trypsinized and seeded at various cell concentrations depending on the cell type. The cells were grown for 24 h to 72 h, treated with compounds at concentrations ranging from 0.001 to 100 μM, and incubated for 48, 72, or 96 h in 100 or 200 μL media depending on the cell line used. Cells treated with 0.1% DMSO were used as a negative control, and cells treated with 1 μM phenyl arsine oxide (PAO) were used as a positive control.
(§3) Compound 4l was evaluated for in vitro growth inhibition against a panel of cancer cell lines, including U373, U251, U87, T98G, human GBM, and A549 NSCLC. […] Compound 4l was also evaluated for in vitro growth inhibition against the apoptosis-sensitive tumor model Hs683 anaplastic oligodendroglioma as a reference.
(§4) Due to their high potencies, compounds 5l and 5g were used to determine the effects of the compounds on drug-resistant tumor cells. Drug-resistant cell lines (i.e., glioma: Hs683, U373, U251, U87, T98G; lung cancer: A549, H2073; uterine carcinoma: MES-SA/Dx5) were complemented with drug-sensitive cell lines, H1993 lung cancer and MES-SA uterine cancer, which were used as controls. Bulbispermine and paclitaxel were also used as controls. The GI50 values were calculated after 48-96 hours of treatment with the indicated compounds in replicate using the MTT growth assay.

Hs683 cells = assay: MTT growth inhibition, Hs683 glioma; format: cell-based, human; conditions: Homo sapiens
Protocol: as §1, §2, §3, §4

HeLa cells = assay: MTT in vitro growth inhibition assay, HeLa; format: cell-based, human; conditions: Homo sapiens, HeLa, two independent experiments
Protocol: as §1
(§5) Spirodienones 4a-m were subjected to in vitro growth inhibition 3-(4,5-dimethylthiazol-2-yl)-2,5-diphenyltetrazolium bromide (MTT) assays against two cell lines, human HeLa cervical and MCF-7 breast adenocarcinomas.
as §2
(§6) To determine the activities of the compounds of the invention toward cancer cells, cell lines treated with different compounds were subjected to an in vitro MTT growth assay using human cervical cancer (HeLa) and human adenocarcinoma (MCF-7) cell lines. The MTT growth assay is a colorimetric assay that measures the metabolic activity of cells via reduction of 3-(4,5-dimethylthiazol-2-yl)-2,5-diphenyltetrazolium bromide (MTT). The reduction of MTT occurs in metabolically-active cells and is characterized by a purple color, which can be quantified via spectrophotometry. A higher absorbance reading indicates a metabolically-active cell, while a low absorbance reading indicates low metabolic activity due to, for example, inhibition of cellular proliferation or cell death.
(§7) The values in TABLE 4 are the mean and standard deviation calculated from two independent experiments, which were performed in 4 replicates.

H1993 cells = assay: MTT growth inhibition, H1993 NSCLC; format: cell-based; conditions: Homo sapiens
Protocol: as §2
(§8) Drug-resistant cell lines (i.e., glioma: Hs683, U373, U251, U87, T98G; lung cancer: A549, H2073; uterine carcinoma: MES-SA/Dx5) were complemented with drug-sensitive cell lines, H1993 lung cancer and MES-SA uterine cancer, which were used as controls. […] The GI50 values were calculated after 48-96 hours of treatment with the indicated compounds in replicate using the MTT growth assay.

MCF-7 cells = assay: MTT in vitro growth inhibition assay, MCF-7; format: cell-based, human; conditions: Homo sapiens, two independent experiments
Protocol: as §1, §5, §2, §6, §7

U251 cells = assay: MTT growth inhibition, U251 glioma; format: cell-based, human; conditions: Homo sapiens
Protocol: as §1, §2, §3, §4

A549 cells = assay: MTT growth inhibition, A549 NSCLC; format: cell-based, human
Protocol: as §1, §2, §8
Compounds 5l and 5g were further tested using the A549 lung cancer cell line to determine a dose-response effect on apoptosis-resistant cells. (FIGS. 4-7). […] The MTT assay was performed in four replicates after 48 hours of treatment with the indicated compounds relative to a DMSO control.

Row | GI50 (U87 cells; Table 3, 48-96 h treatment, read-out: GI50 in vitro values, glioma U87) [µM] | GI50 (Hs683 cells; Hs 683, Table 3, 48-96 h treatment, read-out: GI50 in vitro values, glioma Hs683) [µM] | GI50 (HeLa cells; 48 h treatment, ± SD, read-out: cell viability GI50, HeLa) [µM] | GI50 (H1993 cells; NCI-H1993, Table 3, 48-96 h treatment, read-out: GI50 in vitro values, lung cancer H1993) [µM] | GI50 (MCF-7 cells; MCF7, MCF-7, 48 h treatment, ± SD, read-out: cell viability GI50, MCF-7) [µM] | GI50 (U251 cells; U-251, Table 3, 48-96 h treatment, read-out: GI50 in vitro values, glioma U251) [µM] | GI50 (U87 cells; Table 5, 48-96 hours of treatment, read-out: GI50, Glioma U87) [µM] | GI50 (Hs683 cells; Hs 683, Table 5, 48-96 hours of treatment, read-out: GI50, Glioma Hs683) [µM] | GI50 (HeLa cells; Table 4, 48-hour treatment, mean and standard deviation, read-out: HeLa Cell Viability GI50) [µM] | GI50 (A549 cells; Homo sapiens, Table 5, 48-96 hours of treatment, read-out: GI50, Lung Cancer A549) [µM] | GI50 (H1993 cells; NCI-H1993, Table 5, 48-96 hours of treatment, read-out: GI50, Lung Cancer H1993) [µM] | GI50 (MCF-7 cells; MCF7, Table 4, 48-hour treatment, mean and standard deviation, read-out: MCF-7 Cell Viability GI50) [µM] | GI50 (U251 cells; U-251, Table 5, 48-96 hours of treatment, read-out: GI50, Glioma U251) [µM] | Compound | anti-proliferative activity, dose-response (absorbance at 595 nm) (A549 cells; 48 hours, up to 100 μM, FIGS. 4-7)
1 | 6 | 5 | 10 | 12 | 7 ± 1 | 4 |  |  |  |  |  |  |  | O=C1C=CC2(C=C1)CCN(C(=O)C(F)(F)F)Cc1c2sc2ccccc12 [Compound 4l] | 
2 |  |  |  |  |  |  | 5 | 6 | 6.2 ± 1.13 | 4 | 3 | 4.7 ± 0.1 | 5 | O=C1C=C[C@]23CC[N@](Cc4c2sc2ccccc42)[C@H]3C1 [Compound 5l] | inhibited proliferation of the cells in a dose-dependent manner
